Test results as given in ChEMBL document CHEMBL3885861, “Open TG-GATES”.

Species on record: Rattus norvegicus
Experiment: Open TG-GATES - Regimen: Daily Repeat
Format: toxicity, organism-based, Sprague-Dawley
Set-up: regimen Daily Repeat, gender Male, age 6 weeks
Details: in vivo, po, 1000 mg/kg, route gavage, dose level High; for APTT / Bas / Eos / Fbg / Hb / Ht / Lym / MCH / MCHC / MCV / Mono / Neu / PT / Plat / RBC / Ret / WBC: tissue Blood; for KIDNEY_L / KIDNEY_R / KIDNEY_TOTAL: tissue Kidney; for LIVER: tissue Liver; for A/G / ALP / ALT / AST / BUN / CRE / Ca / Cl / DBIL / GLC / IP / K / LDH / Na / PL / RALB / TBIL / TC / TG / TP / gamma-GTP: tissue Plasma

## COc1ccc(Cl)cc1C(=O)NCCc1ccc(S(=O)(=O)NC(=O)NC2CCCCC2)cc1 [GLYBURIDE]
72 h, time 3 day
  TERMINAL_BW: 228 g
  APTT: 20.6 s
  Bas: 0%
  Eos: 1.2%
  Fbg: 221.4 mg/dL
  Hb: 13.5 g/dL
  Ht: 40.2%
  Lym: 79.2%
  MCH: 21.1 pg
  MCHC: 33.6%
  MCV: 62.9 fL
  Mono: 2.4%
  Neu: 16.4%
  PT: 12.3 s
  Plat: 120.1 x10_4/uL
  RBC: 640 x10_4/ul
  Ret: 5.2%
  WBC: 112.9 x10_2/uL
  KIDNEY_L: 1 g
  KIDNEY_R: 1 g
  KIDNEY_TOTAL: 2 g
  LIVER: 11.1 g
  A/G: 1.6
  ALP: 893.4 IU/L
  ALT: 36.4 IU/L
  AST: 61.4 IU/L
  BUN: 15.2 mg/dL
  CRE: 0.4 mg/dL
  Ca: 10.8 mg/dL
  Cl: 102.8 meq/L
  DBIL: 0.094 mg/dL
  GLC: 200.2 mg/dL
  IP: 6.7 mg/dL
  K: 4 meq/L
  LDH: 179.2 IU/L
  Na: 140.6 meq/L
  PL: 150.2 mg/dL
  RALB: 3.4 g/dL
  TBIL: 0.1 mg/dL
  TC: 74.4 mg/dL
  TG: 93.4 mg/dL
  TP: 5.5 g/dL
  gamma-GTP: 1 IU/L
[…], time 7 day
  TERMINAL_BW: 260.9 g
  APTT: 19.8 s
  Bas: 0.2%
  Eos: 1%
  Fbg: 220 mg/dL
  Hb: 13.6 g/dL
  Ht: 40%
  Lym: 81%
  MCH: 20.7 pg
  MCHC: 34%
  MCV: 60.8 fL
  Mono: 2.2%
  Neu: 15.2%
  PT: 12.4 s
  Plat: 129 x10_4/uL
  RBC: 658.4 x10_4/ul
  Ret: 5.2%
  WBC: 109.6 x10_2/uL
  KIDNEY_L: 1.1 g
  KIDNEY_R: 1.1 g
  KIDNEY_TOTAL: 2.2 g
  LIVER: 12.5 g
  A/G: 1.4
  ALP: 962.2 IU/L
  ALT: 35 IU/L
  AST: 61.6 IU/L
  BUN: 16.2 mg/dL
  CRE: 0.4 mg/dL
  Ca: 10.8 mg/dL
  Cl: 102.6 meq/L
  DBIL: 0.1 mg/dL
  GLC: 212 mg/dL
  IP: 6.9 mg/dL
  K: 3.8 meq/L
  LDH: 169.4 IU/L
  Na: 140.8 meq/L
  PL: 151.4 mg/dL
  RALB: 3.3 g/dL
  TBIL: 0.2 mg/dL
  TC: 73 mg/dL
  TG: 123.6 mg/dL
  TP: 5.6 g/dL
  gamma-GTP: 1.4 IU/L
[…], time 14 day
  TERMINAL_BW: 308.1 g
  APTT: 20.5 s
  Bas: 0%
  Eos: 0.8%
  Fbg: 224.4 mg/dL
  Hb: 14 g/dL
  Ht: 40.6%
  Lym: 81%
  MCH: 20.7 pg
  MCHC: 34.6%
  MCV: 59.9 fL
  Mono: 2.4%
  Neu: 15.2%
  PT: 12.2 s
  Plat: 116.7 x10_4/uL
  RBC: 678.6 x10_4/ul
  Ret: 4.5%
  WBC: 129.3 x10_2/uL
  KIDNEY_L: 1.2 g
  KIDNEY_R: 1.2 g
  KIDNEY_TOTAL: 2.4 g
  LIVER: 13.8 g
  A/G: 1.5
  ALP: 801.6 IU/L
  ALT: 33.4 IU/L
  AST: 56.8 IU/L
  BUN: 14.6 mg/dL
  CRE: 0.5 mg/dL
  Ca: 10.6 mg/dL
  Cl: 102.8 meq/L
  DBIL: 0.1 mg/dL
  GLC: 174.6 mg/dL
  IP: 6.7 mg/dL
  K: 3.7 meq/L
  LDH: 115 IU/L
  Na: 141 meq/L
  PL: 151 mg/dL
  RALB: 3.6 g/dL
  TBIL: 0.2 mg/dL
  TC: 72.4 mg/dL
  TG: 102.2 mg/dL
  TP: 5.9 g/dL
  gamma-GTP: 1.4 IU/L
[…], time 28 day
  TERMINAL_BW: 392.8 g
  APTT: 20.5 s
  Bas: 0%
  Eos: 1%
  Fbg: 218.2 mg/dL
  Hb: 14.9 g/dL
  Ht: 42.8%
  Lym: 81.4%
  MCH: 19.5 pg
  MCHC: 34.8%
  MCV: 56 fL
  Mono: 2.4%
  Neu: 14.4%
  PT: 12.3 s
  Plat: 99 x10_4/uL
  RBC: 766.2 x10_4/ul
  Ret: 2.7%
  WBC: 123.6 x10_2/uL
  KIDNEY_L: 1.3 g
  KIDNEY_R: 1.4 g
  KIDNEY_TOTAL: 2.7 g
  LIVER: 16 g
  A/G: 1.4
  ALP: 552.4 IU/L
  ALT: 31.6 IU/L
  AST: 55.2 IU/L
  BUN: 16 mg/dL
  CRE: 0.5 mg/dL
  Ca: 10.3 mg/dL
  Cl: 103 meq/L
  DBIL: 0.098 mg/dL
  GLC: 230.2 mg/dL
  IP: 6.5 mg/dL
  K: 4.2 meq/L
  LDH: 131 IU/L
  Na: 141 meq/L
  PL: 153.2 mg/dL
  RALB: 3.5 g/dL
  TBIL: 0.2 mg/dL
  TC: 75.6 mg/dL
  TG: 102 mg/dL
  TP: 6 g/dL
  gamma-GTP: 0.8 IU/L
